Laboratory results: patent US5869501A, “Amidinonaphthyl derivative or salt thereof” (Yamanouchi Pharmaceutical Co. Ltd, priority 1994, dated 1999)
Where a name gives a salt, the structure may show the parent alone. Read-outs that look alike come from different tables or passages of the source.

Experiments:
Assay type in all cases: biochemical
bovine thrombin = biological target: T1, bovine thrombin (Bos taurus, UniProt P00735); assay: Measurement of coagulation time by bovine thrombin (human fibrinogen); conditions: pH=7.40, read-out: CT2 (dose which extends the blood coagulation time twice), bovine thrombin
T1 construct: clotting of human fibrinogen
Experimental: 2) Test on the measurement of coagulation time by bovine thrombin.
Human fibrinogen (freeze-dried preparation, manufactured by Sigma) is dissolved in 0.05M Tris-HCl buffer (pH=7.40) to prepare a 6 mg/ml solution. Bovine thrombin (500 IU/vial, manufactured by Mochida Pharmaceutical) is dissolved in physiological saline to prepare thrombin solutions of various concentrations. A 100 μl portion of the aforementioned fibrinogen solution was mixed with 100 μl of physiological saline, the mixture was incubated at 37° C. for 3 minutes. Then, 100 μl of the aforementioned thrombin solution was added to measure the coagulation time and to determine concentration of thrombin which causes coagulation after about 20 seconds. Next, 100 μl of each drug which has been diluted with physiological saline was added to 100 μl of the aforementioned fibrinogen solution to measure the coagulation time. KC4A manufactured by Amelung was used for the measurement of the coagulation time. A dose which extends the blood coagulation time twice (to be referred to as CT2 hereinafter) was calculated based on the blood coagulation time when 100 μl of physiological saline was added.

[1] = biological target: T2, human activated blood coagulation factor X (Homo sapiens, UniProt P00742); assay: Measurement of blood coagulation time by human activated blood coagulation factor X (human plasma); conditions: read-out: CT2 (dose which extends the blood coagulation time twice), human activated blood coagulation factor X
T2 construct: purchased Cosmo Bio
T2 sequence (P00742 235-488 limits assumed): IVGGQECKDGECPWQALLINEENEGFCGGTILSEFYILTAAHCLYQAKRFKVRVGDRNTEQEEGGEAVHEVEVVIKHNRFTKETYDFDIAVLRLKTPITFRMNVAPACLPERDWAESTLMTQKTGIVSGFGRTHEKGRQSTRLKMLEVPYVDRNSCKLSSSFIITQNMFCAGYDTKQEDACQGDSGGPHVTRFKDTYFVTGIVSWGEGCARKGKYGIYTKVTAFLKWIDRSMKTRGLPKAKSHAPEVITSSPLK
T2 sequence (P00742 41-179 partner limits assumed): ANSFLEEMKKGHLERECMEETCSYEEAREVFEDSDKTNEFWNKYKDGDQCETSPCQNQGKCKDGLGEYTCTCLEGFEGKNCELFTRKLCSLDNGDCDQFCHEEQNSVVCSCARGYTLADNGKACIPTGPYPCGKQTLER
Experimental: 1) Test on the measurement of blood coagulation time by human activated blood coagulation factor X.
Human activated blood coagulation factor X (manufactured by Cosmo Bio) is dissolved in 0.05M Tris-HCl buffer (pH=7.40) to prepare a 0.05 unit/ml solution. A blood sample collected using 1/10 volume of 3.8% sodium citrate was centrifuged at 3,000 rpm for 10 minutes. Then, 90 μl portion of the thus separated human plasma was mixed with 10 μl of each drug which has been diluted by dissolving in physiological saline and 50 μl of the aforementioned activated blood coagulation factor X solution, and the mixture was incubated at 37° C. for 3 minutes. Then, 100 μl of 20 mM CaCl2 solution was added to measure the blood coagulation time. KC4A manufactured by Amelung was used for the measurement of blood coagulation time. A dose which extends the blood coagulation time twice (to be referred to as CT2 hereinafter) was calculated based on the blood coagulation time when 10 μl of physiological saline was added instead of the drug.

[2] = biological target: T2, human activated blood coagulation factor X; assay: Measurement of enzyme inhibition by a synthetic substrate method (S-2222); conditions: 37° C., 15 minutes, absorbance at 405 nm
Experimental: 3) Test on the measurement of enzyme inhibition by a synthetic substrate method.
Human activated blood coagulation factor X (manufactured by Cosmo Bio) was dissolved in 0.02M Tris-HCl buffer (pH=7.40) containing 0.15M sodium chloride to prepare a 6 units/ml solution. A synthetic substrate S-2222 (manufactured by Daiichi Kagaku Yakuhin) was dissolved in purified water to prepare a 0.75 mg/ml solution. A 25 μl portion of each drug which has been prepared by dissolving the drug in physiological saline was mixed with 170 μl of 0.05M Tris-HCl buffer (pH=8.40) and 50 μl of the S-2222 solution. Then, 10 μl of the human activated blood coagulation factor X solution was added and the mixture was incubated at 37° C. for 15 minutes. The reaction was stopped by adding 50 μl of 60% acetic acid and then the absorbance at 405 nm was measured to calculate IC50 value. Model 3550 manufactured by Bio-Rad was used for the measurement. A reaction mixture prepared by adding physiological saline instead of the drug and adding 60% acetic acid prior to the addition of the human activated blood coagulation factor X solution was used as a control. Concentration of the drug when 50% of the reaction was inhibited (to be referred to as IC50 hereinafter) was calculated based on the control.

[3] = human plasma, 37° C., 3 minutes incubation

Structure (SMILES)	IC (2-fold clotting time) (bovine thrombin) [µM]	IC (2-fold clotting time) [1, 3] [µM]	IC50 [2] [nM]	IC (2-fold clotting time) [1] [µM]
COc1ccccc1C(=O)N(Cc1ccc2ccc(C(=N)N)cc2c1)c1ccc(OC2CCN(C(C)=N)CC2)cc1 [Example 33, N-[4-[(1-Acetoimidoyl-4-piperidyl)oxy]phenyl]-N-[(7-amidino-2-naphthyl)methyl]-2-methoxybenzamide dihydrochloride]	> 100	0.14		
CC(=N)N1CCC(Oc2ccc(N(Cc3ccc4ccc(C(=N)N)cc4c3)C(=O)c3c(F)cccc3F)cc2)CC1 [Example 47, N-[4-[(1-Acetoimidoyl-4-piperidyl)oxy]phenyl]-N-[(7-amidino-2-naphthyl)methyl]-2,6-difluorobenzamide dihydrochloride]	> 100	0.13		
CC(=N)N1CCC(Oc2ccc(N(Cc3ccc4ccc(C(=N)N)cc4c3)S(=O)(=O)c3ccc(C(=O)O)cc3)cc2)CC1 [Example 74, 4-[N-[4-[(1-Acetoimidoyl-4-piperidyl)oxy]phenyl]-N-[(7-amidino-2-naphthyl)methyl]sulfamoyl]benzoic acid dihydrochloride]	> 100	0.09		
CCOC(=O)CNS(=O)(=O)N(Cc1ccc2ccc(C(=N)N)cc2c1)c1ccc(OC2CCN(C(C)=N)CC2)cc1 [Example 88, Ethyl N-[N-[4-[(1-acetoimidoyl-4-piperidyl)oxy]phenyl]-N-[(7-amidino-2-naphthyl)methyl]sulfamoyl]glycinate dihydrochloride]	> 100		47	0.04
CCOC(=O)C(=O)N(Cc1ccc2ccc(C(=N)N)cc2c1)c1ccc(OC2CCN(C(C)=N)CC2)cc1 [Example 23, ethyl N-[4-[(1-acetoimidoyl-4-piperidyl)oxy]phenyl]-N-[(7-amidino-2-naphthyl)methyl]oxamate dihydrochloride]	> 100	0.11		
CC(=N)N1CCC(Oc2ccc(NCc3ccc4ccc(C(=N)N)cc4c3)cc2)CC1 [Example 31, 7-[[4-[(1-Acetoimidoyl-4-piperidyl)oxy]anilino]methyl]-2-naphthamidine trihydrochloride]	> 100	0.09		
CNS(=O)(=O)N(Cc1ccc2ccc(C(=N)N)cc2c1)c1ccc(OC2CCN(C(C)=N)CC2)cc1 [Example 79, N-[4-[(1-Acetoimidoyl-4-piperidyl)oxy]phenyl]-N-[(7-amidino-2-naphthyl)methyl]-N'-methylsulfamide dihydrochloride]	> 100		91	0.05
CCOC(=O)N(CC(=O)O)S(=O)(=O)N(Cc1ccc2ccc(C(=N)N)cc2c1)c1ccc(OC2CCN(C(C)=N)CC2)cc1 [Example 86, N-[N-[4-[(1-Acetoimidoyl-4-piperidyl)oxy]phenyl]-N-[(7-amidino-2-naphthyl)methyl]sulfamoyl]-N-ethoxycarbonylglycine dihydrochloride]	> 100	0.04		
CCOC(=O)NS(=O)(=O)N(Cc1ccc2ccc(C(=N)N)cc2c1)c1ccc(OC2CCN(C(C)=N)CC2)cc1 [Example 63, Ethyl N-[N-[4-[(1-acetoimidoyl-4-piperidyl)oxy]phenyl]-N-[7-amidino-2-naphthyl)methyl]sulfamoyl]carbamate dihydrochloride]	> 100	0.04		
CCS(=O)(=O)N(Cc1ccc2ccc(C(=N)N)cc2c1)c1ccc(OC2CCN(C(C)=N)CC2)cc1 [Example 28, N-[4-[(1-Acetoimidoyl-4-piperidyl)oxy]phenyl]-N-[(7-amidino-2-naphthyl)methyl]ethanesulfonamide dihydrochloride]	> 100	0.05		
